Like-named read-outs stand apart in the source and are kept apart here.
Key:
zDHHC2 [1] = target: T1, zDHHC2 (Homo sapiens, UniProt Q9UIJ5); test: PTP fluorogenic assay, single concentration […]; type: biochemical
T1 sequence (Q9UIJ5 1-367): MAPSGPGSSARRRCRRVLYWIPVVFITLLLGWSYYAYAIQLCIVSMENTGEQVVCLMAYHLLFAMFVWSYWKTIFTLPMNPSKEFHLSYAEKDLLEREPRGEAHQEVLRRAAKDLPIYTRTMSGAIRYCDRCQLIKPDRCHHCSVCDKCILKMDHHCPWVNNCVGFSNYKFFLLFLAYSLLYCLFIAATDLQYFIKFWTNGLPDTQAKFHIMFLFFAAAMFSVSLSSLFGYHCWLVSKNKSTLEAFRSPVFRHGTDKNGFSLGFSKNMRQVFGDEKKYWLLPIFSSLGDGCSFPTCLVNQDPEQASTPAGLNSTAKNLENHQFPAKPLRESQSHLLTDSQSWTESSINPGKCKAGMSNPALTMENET

zDHHC20 = target: T2, zDHHC20 (Homo sapiens, UniProt Q5W0Z9); test: PTP fluorogenic turn-on assay with purified zDHHC20; type: biochemical
T2 sequence (Q5W0Z9 1-365): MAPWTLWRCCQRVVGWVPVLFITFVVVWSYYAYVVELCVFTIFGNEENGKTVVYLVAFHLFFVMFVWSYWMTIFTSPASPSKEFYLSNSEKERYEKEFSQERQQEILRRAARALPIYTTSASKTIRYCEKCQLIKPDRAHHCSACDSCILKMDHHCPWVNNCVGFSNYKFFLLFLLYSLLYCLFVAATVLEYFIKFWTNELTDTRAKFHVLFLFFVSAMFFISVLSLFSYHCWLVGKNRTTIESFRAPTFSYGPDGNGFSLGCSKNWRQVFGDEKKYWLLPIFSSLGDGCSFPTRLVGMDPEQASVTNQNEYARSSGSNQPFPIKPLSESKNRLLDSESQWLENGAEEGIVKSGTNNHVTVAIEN

zDHHC3 [2] = target: T3, zDHHC3 (Homo sapiens, UniProt Q9NYG2); test: PTP fluorogenic assay, single concentration […]; type: biochemical
T3 sequence (Q9NYG2 1-299): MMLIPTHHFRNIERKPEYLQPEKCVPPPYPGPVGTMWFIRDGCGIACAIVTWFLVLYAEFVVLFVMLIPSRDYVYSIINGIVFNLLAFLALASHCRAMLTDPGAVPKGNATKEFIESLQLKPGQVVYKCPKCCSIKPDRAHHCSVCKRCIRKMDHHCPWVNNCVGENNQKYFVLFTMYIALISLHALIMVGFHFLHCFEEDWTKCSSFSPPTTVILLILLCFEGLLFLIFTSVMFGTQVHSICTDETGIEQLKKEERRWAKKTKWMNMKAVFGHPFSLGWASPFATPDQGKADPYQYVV

zDHHC2 [3] = target: T1, zDHHC2; test: fluorogenic probe uncaging by purified enzyme ([…] probe); type: biochemical
zDHHC3 [4] = target: T3, zDHHC3; test: as above; type: biochemical
purified protein = substrate: CCCCCCCCCCCCCCCC(=O)SCCN(C)C(=O)Oc1ccc2c(c1)Oc1cc(N3CCN(C(=O)CCCC(=O)O)CC3)ccc1C21OC(=O)c2ccccc21; test: purified protein; settings: palmitoyl-CoA mimetic; turnover depends on the key catalytic cysteine of the DHHC motif

CCCCCCCCCCCCCCC(Br)C(=O)O (stereo not shown) [2BP, 2-Bromopalmitate] was tested, and the “PTP fluorogenic assay, single concentration 20 μM” value (zDHHC2 [1]) was “both CMA and 2BP were able to inhibit zDHHC2, zDHHC3, and zDHHC20”, the IC50 (zDHHC20) was 2020 ± 290 nM and the “PTP fluorogenic assay, single concentration 20 μM” value (zDHHC3 [2]) was “both CMA and 2BP were able to inhibit zDHHC2, zDHHC3, and zDHHC20”.

In the case of CCCCCCCCCCCCCCCC(=O)SCCN(C)C(=O)Oc1ccc2c(c1)Oc1cc(N3CCN(C(=O)CCN4CCOCC4)CC3)ccc1C21OC(=O)c2ccccc21 (stereo not shown) [PTP-3], the “fluorogenic probe uncaging by purified enzyme (4 μM probe)” value (zDHHC2 [3]) is reported as “PTP-3, the morpholino compound, was the best substrate for these two DHHCs” and the “fluorogenic probe uncaging by purified enzyme (4 μM probe)” value (zDHHC3 [4]) is reported as “PTP-3, the morpholino compound, was the best substrate for these two DHHCs”.

In the case of C=CC(=O)N(CC#N)CCCCCCCCCCCCCC [CMA, cyanomyracrylamide], the IC50 (zDHHC20; read-out: IC50) is reported as 463 ± 70 nM.

B1: zDHHC20 (Homo sapiens) (protein)
chain: T2 sequence (Q5W0Z9 1-365)
B1 gave a Km (purified protein) of 24.3 µM.
